The values that follow are results of earlier work, collected in US20010001790A1, “TOPICAL FORMULATIONS COMPRISING SKIN PENETRATION AGENTS AND THE USE THEREOF” (priority 1999, published 2001).

The conditions of this data set: propylene glycol vehicle; upon addition of cetyl alcohol at 3% by weight.

Regarding `CC1(C)O[C@@H]2C[C@H]3[C@@H]4CCC5=CC(=O)C=C[C@]5(C)[C@@]4(F)[C@@H](O)C[C@]3(C)[C@]2(C(=O)CO)O1` [triamcinolone acetonide], the “reduction of skin penetration of the pharmaceutically active agent” value is 39%.
